Measurements: patent publication US20240374585A1, “EPITHELIAL SODIUM CHANNEL (ENAC) INHIBITOR CONJUGATES AND METHODS FOR USE THEREOF” (Lung Therapeutics, Inc., priority 2021, published 2024)
Where no end group is shown, it is not given here. [ ]: non-standard residue; d: D form. Aib = CC(C)(N)C(=O)O; Ahx = NCCCCCC(=O)O

Assays:
[1] = test system: sheep model of cystic fibrosis; experiment: Tracheal mucous velocity (TMV) in sheep model of cystic fibrosis; format: in vivo
Procedure: The conjugates of the present invention were tested for their ability to increase lung mucociliary clearance in a sheep model of cystic fibrosis.
The peptide conjugates of the present invention were tested in vivo using a sheep model of cystic fibrosis as described in Scott et al., Am J. Resp. Crit. Care Med., 2017; 196 (6): 734-744; and Sabater et al., PLOS ONE, 2019; 14 (11): e0224764, hereby incorporated by reference in their entirety.
Briefly, tracheal mucous velocity (TMV) was determined in sheep by insufflation of radio-opaque Teflon disks into the trachea and measuring the movement of the disks over a 1 minute period by scintigraphy.
Intubated sheep were treated with the CFTR inhibitor INH-172 by nebulization, which caused a reduction in the mucus transport rate in the trachea. Once a baseline inhibited TMV was obtained at 4 hours following CFTR inhibition, then ENaC inhibitor conjugate (Conj. 13) or control was nebulized into the sheep lung and TMV measurements were repeated hourly.

neutrophil elastase = biological target: T1, neutrophil elastase (Homo sapiens, UniProt P08246)
T1 sequence (P08246 30-267): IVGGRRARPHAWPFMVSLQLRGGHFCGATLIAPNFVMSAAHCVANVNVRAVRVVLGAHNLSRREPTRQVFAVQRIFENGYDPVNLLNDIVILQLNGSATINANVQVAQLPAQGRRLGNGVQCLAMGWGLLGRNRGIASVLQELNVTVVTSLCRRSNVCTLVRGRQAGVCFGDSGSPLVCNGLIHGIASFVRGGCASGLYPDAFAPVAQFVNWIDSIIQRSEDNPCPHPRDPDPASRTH
Procedure: Experiments were therefore performed to determine the stability of the conjugates to protease cleavage.
The conjugates of the invention were incubated in PBS or PBS and 0.1 mg neutrophil elastase for 60 minutes at 37° C. The conjugates were then run on HPLC to determine their stability against protease cleavage.

ENaC = biological target: T2, ENaC (Homo sapiens, UniProt P37088+P51168+P51170); experiment: ENaC inhibition in NHBE cell monolayers, Ussing epithelial voltage clamp (short circuit current); format: cell-based; conditions: NHBE cell monolayers, Ussing chamber, apical addition, 35±2° C.
T2 construct: Primary NHBE cells were isolated from bronchi of normal healthy patients; endogenous in cells; host or cells: primary normal human bronchial epithelial (NHBE) cells, differentiated at air-liquid interface
T2 sequence (P37088 1-669): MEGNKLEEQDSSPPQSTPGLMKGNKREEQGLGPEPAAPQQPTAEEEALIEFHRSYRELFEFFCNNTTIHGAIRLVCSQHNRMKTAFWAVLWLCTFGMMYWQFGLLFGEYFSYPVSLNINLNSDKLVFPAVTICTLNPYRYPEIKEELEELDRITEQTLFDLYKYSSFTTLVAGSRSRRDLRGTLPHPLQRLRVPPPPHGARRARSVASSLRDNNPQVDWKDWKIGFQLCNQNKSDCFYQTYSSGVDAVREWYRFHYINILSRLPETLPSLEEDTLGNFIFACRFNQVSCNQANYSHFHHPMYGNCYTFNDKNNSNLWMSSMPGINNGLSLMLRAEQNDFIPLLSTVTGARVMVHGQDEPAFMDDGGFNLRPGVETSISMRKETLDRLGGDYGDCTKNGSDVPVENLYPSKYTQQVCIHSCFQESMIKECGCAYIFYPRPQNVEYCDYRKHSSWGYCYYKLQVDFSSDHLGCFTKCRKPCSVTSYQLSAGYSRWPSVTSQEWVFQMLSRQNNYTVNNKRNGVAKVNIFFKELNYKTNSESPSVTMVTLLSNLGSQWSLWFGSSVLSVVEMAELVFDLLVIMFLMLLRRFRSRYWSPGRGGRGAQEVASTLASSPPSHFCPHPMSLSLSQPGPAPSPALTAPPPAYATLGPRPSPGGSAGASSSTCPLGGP
T2 sequence (P51168 1-640): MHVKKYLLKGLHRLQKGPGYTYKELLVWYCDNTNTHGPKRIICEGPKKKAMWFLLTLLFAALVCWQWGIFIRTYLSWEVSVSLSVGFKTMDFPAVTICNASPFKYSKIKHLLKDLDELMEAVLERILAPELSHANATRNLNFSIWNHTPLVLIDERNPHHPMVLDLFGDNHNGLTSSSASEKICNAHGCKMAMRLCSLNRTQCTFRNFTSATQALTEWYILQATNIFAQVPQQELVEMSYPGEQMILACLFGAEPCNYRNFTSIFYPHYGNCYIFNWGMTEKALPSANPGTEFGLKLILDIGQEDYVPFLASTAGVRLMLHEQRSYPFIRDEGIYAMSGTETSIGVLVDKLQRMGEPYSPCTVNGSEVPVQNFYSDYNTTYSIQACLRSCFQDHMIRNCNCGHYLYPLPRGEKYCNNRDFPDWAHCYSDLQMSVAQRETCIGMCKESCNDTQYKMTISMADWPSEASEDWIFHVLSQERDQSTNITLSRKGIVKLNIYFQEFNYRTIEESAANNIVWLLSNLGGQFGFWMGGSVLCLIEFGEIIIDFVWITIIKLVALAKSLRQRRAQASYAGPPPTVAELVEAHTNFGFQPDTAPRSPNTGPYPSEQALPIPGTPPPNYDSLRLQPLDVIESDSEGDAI
T2 sequence (P51170 1-649): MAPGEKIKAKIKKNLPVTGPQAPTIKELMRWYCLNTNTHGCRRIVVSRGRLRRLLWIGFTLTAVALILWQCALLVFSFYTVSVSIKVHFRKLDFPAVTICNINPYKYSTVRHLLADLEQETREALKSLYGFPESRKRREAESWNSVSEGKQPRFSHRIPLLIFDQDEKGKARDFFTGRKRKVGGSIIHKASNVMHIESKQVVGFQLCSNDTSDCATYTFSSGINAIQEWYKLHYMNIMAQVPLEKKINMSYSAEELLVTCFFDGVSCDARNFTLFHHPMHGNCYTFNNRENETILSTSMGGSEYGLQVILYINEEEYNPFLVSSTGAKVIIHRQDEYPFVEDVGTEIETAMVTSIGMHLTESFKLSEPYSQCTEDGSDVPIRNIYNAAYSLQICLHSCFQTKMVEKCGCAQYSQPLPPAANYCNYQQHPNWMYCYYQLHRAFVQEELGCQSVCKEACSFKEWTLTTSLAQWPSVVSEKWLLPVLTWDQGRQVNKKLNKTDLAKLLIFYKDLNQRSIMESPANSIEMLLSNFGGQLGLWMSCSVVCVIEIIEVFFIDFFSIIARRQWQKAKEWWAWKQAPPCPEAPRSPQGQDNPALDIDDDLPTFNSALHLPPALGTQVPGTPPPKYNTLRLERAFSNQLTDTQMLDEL
Procedure: The objective of this study was to measure the ability of the illustrative conjugates to modulate ion transport function of ENAC in normal human bronchial epithelial (NHBE) cell monolayers. Sodium transport function of ENAC expressed in NHBE monolayers was evaluated using an Ussing epithelial voltage clamp apparatus. See, Hirsh et al., J. Pharmacol. Exp. Ther. 2008; 325:77-88, hereby incorporated by reference in its entirety.
Primary NHBE cells were isolated from bronchi of normal healthy patients, expanded in Lonza media (BEGM™ BulletKit™), and plated on Snapwell™ filters to form an epithelium. Cells on Snapwell™ inserts were grown for at least 21 days in Vertex Differentiation media and exposed to an air-liquid interface to promote differentiation. At least one day before the assay, mucous overlaying the apical surface was removed from the inserts by incubating the apical surface for about 30 minutes with ≥200 μL of differentiation media followed by aspiration of the mucous film and media.
The NHBE cell monolayers grown on Snapwell™ filter inserts were transferred to Physiologic Instruments Ussing recording chambers (Physiologic Instruments, Inc., San Diego, CA) and superfused with HB-PS. One or more 6-channel or 8-channel Physiologic Instruments VCC MC6 or VCC MC8 epithelial voltage clamps were used in combination to record short circuit current (ISC) from up to 24 inserts simultaneously. Air was used to operate the bubble lifts to rapidly circulate solutions in each Ussing chamber half and to aerate the monolayers.
Inserts were voltage clamped at 0 m V to record the ISC. Bumetanide (20 μM) was added to the basolateral side of all inserts. Test conjugates prepared as DMSO (Sigma-Aldrich) stocks were added cumulatively and sequentially to the apical Ussing chamber halves with at least 3 minutes between each addition.
Time and volume matched additions of DMSO to the basolateral side of the test conjugate treated inserts and both sides of the vehicle treated inserts was made to maintain osmotic balance across the epithelia. Transepithelial resistance was monitored with small voltage steps. The assay was performed at 35±2° C.
ENaC current at each test conjugate concentration was calculated as the peak current change produced by each test conjugate treated insert minus the mean current change produced by the corresponding DMSO additions to time-matched vehicle controls inserts. Cumulative difference data was fit to a Hill equation of the form: […]
Where IEnaC is the ISC peak difference current measured at each test conjugate concentration [Test].

Substance | fold better than SPX-101 at restoring TMV in vivo ([1]; 0.25 mg/kg vs SPX-101 2 mg/kg) | restoration of TMV ([1]; nebulized 0.125, 0.25 and 0.5 mg/kg after CFTR inhibitor INH-172, vs 0.9% saline, FIG. 5) | dose needed to restore TMV ([1]; nebulized, sheep) [mg/kg] | period over which restoration of TMV was sustained ([1]; nebulized, sheep, vs 0.9% saline) [h] | susceptibility to cleavage by neutrophil elastase (neutrophil elastase) | IC50 for the ENaC inhibition (ENaC)
Ac-(AmilCC1)-K-(Aib)-SHLRKLRKRLL-NH2 (K[Aib]SHLRKLRKRLL-NH2; not fully specified (N-terminus); printed as Ac-(AmilCC1)-K-(Aib)-SHLRKLRKRLL-NH2; also: amiloride click conjugate (AmilCC1) at residue 1) [Conjugate 13] | approximately 8 fold | dose-dependent restoration of TMV | 0.25 | 8 | drastically reduced susceptibility to cleavage by neutrophil elastase | 
Ac-K-(Ahx)-VSKRR-NH2 (Ac-K[Ahx]VSKRR-NH2) [Peptide only Control 3, Peptide only control, reference compound] |  |  |  |  |  | Did not inhibit
